The record followed here is ChEMBL document CHEMBL1153832, “Identification and characterization of UK-201844, a novel inhibitor that interferes with human immunodeficiency virus type 1 gp160 processing” (Antimicrob Agents Chemother, 2007).

The source made the active and inactive calls. No cut-off for these calls is given here.

Assay [1] has as its system Human immunodeficiency virus 1. In words: Inhibition of HIV1 NL4-3 proteins incorporation into virions transfected in HEK293 cells assessed as aberrant Env protein at 0.12 uM by Western blot. The format is functional, organism-based.
In assay [2] the test system is Human immunodeficiency virus 1. Put plainly: Antiviral activity against HIV1 bearing HIV1 NL4-3 envelope infected in human HeLa CD4 cells coexpressing LTR/beta-Gal gene assessed as reduction in virus-induced beta-galactosidase reporter gene activity after 72 hrs by single-cycle infection assay. The format is functional, organism-based. The settings on record: Human immunodeficiency virus 1, HeLa.

For assay [3], the system named is Human immunodeficiency virus 1. Put plainly: Antiviral activity against HIV1 bearing VSV envelope infected in human MT2 cells assessed as inhibition of VSV-envelope packed virions at 0.12 uM after 72 hrs by virus production assay relative to control. The assay is classed as functional. The settings on record: Human immunodeficiency virus 1, MT2, 72 h.
The subject of assay [4] is Human immunodeficiency virus 1. Put plainly: Antiviral activity against HIV1 NL4-3 transfected in HEK293 cells assessed as inhibition of infectious virus production at 0.12 uM. The format is functional. More on the design: scale not given: the % may be the effect or the level left.
The subject of assay [5] is Human immunodeficiency virus 1. Put plainly: Antiviral activity against HIV1 bearing HIV1 NL4-3 envelope infected in human MT2 cells assessed as inhibition of HIV-envelope packed virions at 0.12 uM after 72 hrs by virus production assay relative to control. The assay is classed as functional. The settings on record: Human immunodeficiency virus 1, MT2, 72 h.
Assay [6] deals with Human immunodeficiency virus 1. In words: Inhibition of HIV1 NL4-3 proteins incorporation into virions transfected in HEK293 cells assessed as unprocessed gp160 Env protein at 0.12 uM by Western blot. The format is functional, organism-based.
The subject of assay [7] is Human immunodeficiency virus 1. In words: Antiviral activity against HIV1 bearing VSV envelope infected in human HeLa CD4 cells coexpressing LTR/beta-Gal gene assessed as reduction in virus-induced beta-galactosidase reporter gene activity after 72 hrs by single-cycle infection assay. The assay is classed as functional, organism-based. The settings on record: Human immunodeficiency virus 1, HeLa.

In the case of `Cc1c(O)cccc1C(=O)N[C@@H](CSc1ccccc1)[C@H](O)CN1C[C@H]2CCCC[C@H]2C[C@H]1C(=O)NC(C)(C)C` [NELFINAVIR], the outcome in assay [1] and in assay [6] was Active. Moreover, the EC50 in assay [2] and in assay [7] was over 1000 nM in each case. For the same molecule, the values for the inhibition in vivo at 0.12 µM in assay [3] and in assay [5] were 97% and 88%, respectively. The Activity in assay [4] was 94%.

On to `O=C(O)C1=CC(=C(c2ccc(O)c(C(=O)O)c2)c2ccc(O)c(C(=O)O)c2)C=CC1=O` [AURINTRICARBOXYLIC ACID], for which the results for the EC50 in assay [2] and in assay [7] were 76 nM and over 76000 nM, respectively.
